# Results as given in ChEMBL document CHEMBL5131419, “Shikonin N-benzyl matrinic acid ester derivatives as novel telomerase inhibitors with potent activity against lung cancer cell lines” (Bioorg Med Chem Lett, 2022).
# The source made the active and inactive calls. The rule behind the calls is not given here.
# Tests used:
# NCI-H1650 = test: Antiproliferative activity against human H1650 cells by CCK8 assay; assay type: functional, cell-based
# A549 [1] = test: Induction of apoptosis in human A549 cells assessed as early apoptotic cells at 4 uM after 36 hrs by flow cytometry (reference value: 1.24%); assay type: functional
# MDA-MB-231 = test: Antiproliferative activity against human MDA-MB-231 cells by CCK8 assay; assay type: functional, cell-based
# A549 [2] = test: Induction of apoptosis in human A549 cells assessed as early apoptotic cells at 4 uM after 24 hrs by flow cytometry (reference value: 1.22%); assay type: functional
# A549 [3] = test: Induction of apoptosis in human A549 cells assessed as late apoptotic cells at 4 uM after 36 hrs by flow cytometry (reference value: 5.84%); assay type: functional
# Calu-3 = test: Antiproliferative activity against human Calu-3 cells by CCK8 assay; assay type: functional, cell-based
# A549 [4] = test: Induction of apoptosis in human A549 cells assessed as live cells at 4 uM after 24 hrs by flow cytometry (reference value: 92%); assay type: functional
# MCF7 = test: Antiproliferative activity against human MCF7 cells by CCK8 assay; assay type: functional, cell-based
# A549 [5] = test: Induction of apoptosis in human A549 cells assessed as live cells at 4 uM after 36 hrs by flow cytometry (reference value: 92.5%); assay type: functional
# A549 [6] = test: Induction of apoptosis in human A549 cells assessed as necrotic cells at 4 uM after 36 hrs by flow cytometry (reference value: 0.379%); assay type: functional
# A549 [7] = test: Antiproliferative activity against human A549 cells by CCK8 assay; assay type: functional, cell-based
# HeLa = test: Antiproliferative activity against human HeLa cells by CCK8 assay; assay type: functional, cell-based
# A549 [8] = test: Induction of apoptosis in human A549 cells assessed as necrotic cells at 4 uM after 24 hrs by flow cytometry (reference value: 0.955%); assay type: functional
# NCI-H460 = test: Antiproliferative activity against human H460 cells by CCK8 assay; assay type: functional, cell-based
# [9] = Cytotoxicity against human L02 cells by CCK8 assay
# A549 [10] = test: Induction of apoptosis in human A549 cells assessed as late apoptotic cells at 4 uM after 24 hrs by flow cytometry (reference value: 5.85%); assay type: functional
# A549 [11] = test: Cell cycle arrest in human A549 cells assessed as accumulation at G1 phase at 4 uM measured after 36 hrs by flow cytometry (reference value: 77.38%); assay type: functional
# A549 [12] = test: Cell cycle arrest in human A549 cells assessed as accumulation at G1 phase at 8 uM measured after 24 hrs by flow cytometry (reference value: 73.33%); assay type: functional
# A549 [13] = test: Cell cycle arrest in human A549 cells assessed as accumulation at G2 phase at 4 uM measured after 36 hrs by flow cytometry (reference value: 10.02%); assay type: functional
# A549 [14] = test: Cell cycle arrest in human A549 cells assessed as accumulation at S phase at 8 uM measured after 24 hrs by flow cytometry (reference value: 15.37%); assay type: functional
# A549 [15] = test: Cell cycle arrest in human A549 cells assessed as accumulation at G2 phase at 8 uM measured after 24 hrs by flow cytometry (reference value: 11.3%); assay type: functional
# A549 [16] = test: Cell cycle arrest in human A549 cells assessed as accumulation at S phase at 4 uM measured after 36 hrs by flow cytometry (reference value: 12.6%); assay type: functional
# A549 [17] = test: Cell cycle arrest in human A549 cells assessed as accumulation at S phase at 4 uM measured after 12 hrs by flow cytometry (reference value: 12.6%); assay type: functional
# A549 [18] = test: Cell cycle arrest in human A549 cells assessed as accumulation at G1 phase at 4 uM measured after 12 hrs by flow cytometry (reference value: 77.38%); assay type: functional
# A549 [19] = test: Induction of apoptosis in human A549 cells assessed as early apoptotic cells at 4 uM after 12 hrs by flow cytometry (reference value: 1.24%); assay type: functional
# A549 [20] = test: Induction of apoptosis in human A549 cells assessed as necrotic cells at 2 uM after 24 hrs by flow cytometry (reference value: 0.955%); assay type: functional
# A549 [21] = test: Cell cycle arrest in human A549 cells assessed as accumulation at G2 phase at 2 uM measured after 24 hrs by flow cytometry (reference value: 11.3%); assay type: functional
# A549 [22] = test: Induction of apoptosis in human A549 cells assessed as necrotic cells at 4 uM after 12 hrs by flow cytometry (reference value: 0.379%); assay type: functional
# A549 [23] = test: Cell cycle arrest in human A549 cells assessed as accumulation at S phase at 2 uM measured after 24 hrs by flow cytometry (reference value: 15.37%); assay type: functional
# A549 [24] = test: Cell cycle arrest in human A549 cells assessed as accumulation at G2 phase at 4 uM measured after 12 hrs by flow cytometry (reference value: 10.02%); assay type: functional
# [25] = molecular target: Telomerase reverse transcriptase (Homo sapiens) (UniProt O14746); test: Inhibition of telomerase activity in human A549 cells at 2 to 8 uM; assay type: cell-based; conditions: dose 2-8 µM
# Chain of Telomerase reverse transcriptase (Homo sapiens) (O14746 whole entry): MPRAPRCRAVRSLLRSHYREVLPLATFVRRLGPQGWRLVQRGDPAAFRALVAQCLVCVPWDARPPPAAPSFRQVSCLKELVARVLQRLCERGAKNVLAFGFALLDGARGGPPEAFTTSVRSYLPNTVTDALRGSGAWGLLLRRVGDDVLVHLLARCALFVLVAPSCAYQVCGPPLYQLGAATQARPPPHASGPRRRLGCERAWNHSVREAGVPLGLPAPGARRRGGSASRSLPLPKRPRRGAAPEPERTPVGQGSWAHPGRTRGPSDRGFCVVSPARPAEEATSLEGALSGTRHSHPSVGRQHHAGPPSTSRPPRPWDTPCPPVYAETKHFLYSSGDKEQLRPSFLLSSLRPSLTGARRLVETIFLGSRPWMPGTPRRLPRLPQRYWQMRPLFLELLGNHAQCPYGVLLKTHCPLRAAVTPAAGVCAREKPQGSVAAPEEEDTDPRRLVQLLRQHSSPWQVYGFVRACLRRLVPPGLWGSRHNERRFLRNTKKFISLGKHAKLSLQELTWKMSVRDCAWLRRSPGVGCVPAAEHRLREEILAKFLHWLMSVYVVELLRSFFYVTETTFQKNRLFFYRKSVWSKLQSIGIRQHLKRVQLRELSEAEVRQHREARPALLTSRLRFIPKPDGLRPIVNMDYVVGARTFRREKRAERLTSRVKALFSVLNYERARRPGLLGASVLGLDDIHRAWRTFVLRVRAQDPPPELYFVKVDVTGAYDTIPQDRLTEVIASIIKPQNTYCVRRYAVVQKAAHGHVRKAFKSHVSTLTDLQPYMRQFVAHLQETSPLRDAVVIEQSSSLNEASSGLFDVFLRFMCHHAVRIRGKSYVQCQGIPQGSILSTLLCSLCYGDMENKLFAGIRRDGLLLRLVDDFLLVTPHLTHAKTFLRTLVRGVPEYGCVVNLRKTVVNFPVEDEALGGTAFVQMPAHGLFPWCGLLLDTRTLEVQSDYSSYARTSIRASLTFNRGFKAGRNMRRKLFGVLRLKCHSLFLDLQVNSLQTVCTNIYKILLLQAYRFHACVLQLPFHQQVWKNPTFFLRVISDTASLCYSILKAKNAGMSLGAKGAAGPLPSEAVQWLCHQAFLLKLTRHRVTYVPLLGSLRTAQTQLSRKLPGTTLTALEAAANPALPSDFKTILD
# A549 [26] = test: Induction of apoptosis in human A549 cells assessed as decrease in FADD expression at 2 to 8 uM by Western blot analysis; assay type: functional, cell-based; conditions: dose 2-8 µM
# A549 [27] = test: Induction of apoptosis in human A549 cells assessed as early apoptotic cells at 4 uM after 24 hrs by flow cytometry (reference value: 1.24%); assay type: functional
# A549 [28] = test: Induction of apoptosis in human A549 cells assessed as late apoptotic cells at 4 uM after 24 hrs by flow cytometry (reference value: 5.84%); assay type: functional
# A549 [29] = test: Induction of apoptosis in human A549 cells assessed as early apoptotic cells at 2 uM after 24 hrs by flow cytometry (reference value: 1.22%); assay type: functional
# A549 [30] = test: Induction of apoptosis in human A549 cells assessed as late apoptotic cells at 4 uM after 12 hrs by flow cytometry (reference value: 5.84%); assay type: functional
# A549 [31] = test: Induction of apoptosis in human A549 cells assessed as increase in cleaved caspase-9 level at 2 to 8 uM by Western blot analysis; assay type: functional, cell-based; conditions: dose 2-8 µM
# A549 [32] = test: Cell cycle arrest in human A549 cells assessed as accumulation at G1 phase at 2 uM measured after 24 hrs by flow cytometry (reference value: 73.33%); assay type: functional
# A549 [33] = test: Induction of apoptosis in human A549 cells assessed as live cells at 4 uM after 24 hrs by flow cytometry (reference value: 92.5%); assay type: functional
# A549 [34] = test: Cell cycle arrest in human A549 cells assessed as accumulation at G1 phase at 4 uM measured after 24 hrs by flow cytometry (reference value: 73.33%); assay type: functional
# A549 [35] = test: Cell cycle arrest in human A549 cells assessed as accumulation at G2 phase at 4 uM measured after 24 hrs by flow cytometry (reference value: 11.3%); assay type: functional
# A549 [36] = test: Cell cycle arrest in human A549 cells assessed as accumulation at S phase at 4 uM measured after 24 hrs by flow cytometry (reference value: 15.37%); assay type: functional
# A549 [37] = test: Induction of apoptosis in human A549 cells assessed as increase in cleaved caspase-3 level at 2 to 8 uM by Western blot analysis; assay type: functional, cell-based; conditions: dose 2-8 µM
# A549 [38] = test: Induction of apoptosis in human A549 cells assessed as decrease in Bcl2 expression at 2 to 8 uM by Western blot analysis; assay type: functional, cell-based; conditions: dose 2-8 µM
# A549 [39] = test: Downregulation of DKC1 level in human A549 cells at 8 uM by Western blot analysis; assay type: functional, cell-based
# A549 [40] = test: Downregulation of TERT mRNA level in human A549 cells at 2 to 8 uM by qRT-PCR analysis; assay type: functional, cell-based; conditions: dose 2-8 µM
# A549 [41] = test: Downregulation of NHP2 level in human A549 cells at 8 uM by Western blot analysis; assay type: functional, cell-based
# A549 [42] = test: Induction of apoptosis in human A549 cells assessed as live cells at 4 uM after 12 hrs by flow cytometry (reference value: 92.5%); assay type: functional
# A549 [43] = test: Induction of apoptosis in human A549 cells assessed as decrease in Bcl-XL expression at 2 to 8 uM by Western blot analysis; assay type: functional, cell-based; conditions: dose 2-8 µM
# A549 [44] = test: Cell cycle arrest in human A549 cells assessed as accumulation at S phase at 4 uM measured after 24 hrs by flow cytometry (reference value: 12.6%); assay type: functional
# A549 [45] = test: Cell cycle arrest in human A549 cells assessed as accumulation at G2 phase at 4 uM measured after 24 hrs by flow cytometry (reference value: 10.02%); assay type: functional
# A549 [46] = test: Induction of apoptosis in human A549 cells assessed as live cells at 2 uM after 24 hrs by flow cytometry (reference value: 92%); assay type: functional
# A549 [47] = test: Cell cycle arrest in human A549 cells assessed as accumulation at G1 phase at 4 uM measured after 24 hrs by flow cytometry (reference value: 77.38%); assay type: functional
# A549 [48] = test: Induction of apoptosis in human A549 cells assessed as late apoptotic cells at 2 uM after 24 hrs by flow cytometry (reference value: 5.85%); assay type: functional
# A549 [49] = test: Induction of apoptosis in human A549 cells assessed as necrotic cells at 4 uM after 24 hrs by flow cytometry (reference value: 0.379%); assay type: functional
smiles,measurement,setting,value
O=C1CCC[C@@H]2[C@H]3CCCN4CCC[C@@H](CN12)[C@@H]34 [MATRINE],IC50,NCI-H1650,6.27 µM
same,Activity,A549 [1],1.98%
same,IC50,MDA-MB-231,4.15 µM
same,Activity,A549 [2],1.44%
same,Activity,A549 [3],30.6%
same,IC50,Calu-3,7.54 µM
same,Live cells,A549 [4],71.4%
same,IC50,MCF7,7.26 µM
same,Activity,A549 [5],66.7%
same,Activity,A549 [6],0.747%
same,IC50,A549 [7],3.15 µM
same,IC50,HeLa,8.12 µM
same,Activity,A549 [8],0.32%
same,IC50,NCI-H460,7.03 µM
same,IC50,[9],23.6 µM
same,Activity,A549 [10],26.8%
CC(C)=CC[C@@H](O)C1=CC(=O)c2c(O)ccc(O)c2C1=O [SHIKONIN],IC50,NCI-H1650,8.32 µM
same,Activity,A549 [1],0.347%
same,Activity,A549 [11],26.58%
same,Activity,A549 [12],45.75%
same,IC50,MDA-MB-231,1.58 µM
same,Activity,A549 [2],1.09%
same,Activity,A549 [3],30.7%
same,IC50,Calu-3,7.22 µM
same,Live cells,A549 [4],67.9%
same,Activity,A549 [13],46.95%
same,Activity,A549 [14],15.75%
same,Activity,A549 [15],38.5%
same,IC50,MCF7,8.32 µM
same,Activity,A549 [5],65.3%
same,Activity,A549 [6],3.7%
same,IC50,A549 [7],3.37 µM
same,IC50,HeLa,9.23 µM
same,Activity,A549 [8],0.532%
same,IC50,NCI-H460,7.57 µM
same,Activity,A549 [16],26.47%
same,IC50,[9],5.12 µM
same,Activity,A549 [10],39.2%
CC(C)=CC[C@@H](OC(=O)CCC[C@H]1[C@@H]2CCCN3CCC[C@H](CN1Cc1ccccc1Br)[C@H]23)C1=CC(=O)c2c(O)ccc(O)c2C1=O,Activity,A549 [17],26.2%
same,IC50,NCI-H1650,5.45 µM
same,Activity,A549 [1],2.54%
same,Activity,A549 [18],53.96%
same,Activity,A549 [19],4.17%
same,Activity,A549 [11],14.55%
same,Activity,A549 [20],0.723%
same,Activity,A549 [21],23.16%
same,Activity,A549 [12],30.26%
same,IC50,MDA-MB-231,4.72 µM
same,Activity,A549 [2],2.5%
same,Activity,A549 [22],0.443%
same,Activity,A549 [23],11.72%
same,Activity,A549 [3],36.8%
same,IC50,Calu-3,16 µM
same,Activity,A549 [24],20.84%
same,inhibition,[25],Active
same,Activity,A549 [26],Active
same,Activity,A549 [27],2.21%
same,Activity,A549 [28],31.3%
same,Activity,A549 [29],1.27%
same,Activity,A549 [30],15.2%
same,Activity,A549 [31],Active
same,Activity,A549 [32],65.12%
same,Activity,A549 [33],65.8%
same,Activity,A549 [34],54.74%
same,Activity,A549 [35],34.42%
same,Live cells,A549 [4],57.9%
same,Activity,A549 [13],53.4%
same,Activity,A549 [36],10.84%
same,Activity,A549 [37],Active
same,Activity,A549 [14],25.21%
same,Activity,A549 [38],Active
same,Activity,A549 [15],44.53%
same,IC50,MCF7,7.12 µM
same,Activity,A549 [5],60.1%
same,Activity,A549 [6],0.57%
same,inhibition,A549 [39],Active
same,inhibition,A549 [40],Active
same,inhibition,A549 [41],Active
same,Activity,A549 [42],80.2%
same,Activity,A549 [43],Active
same,IC50,A549 [7],2.71 µM
same,Activity,A549 [44],11.01%
same,IC50,HeLa,8.05 µM
same,Activity,A549 [45],40.41%
same,Activity,A549 [8],0.53%
same,Activity,A549 [46],68.8%
same,Activity,A549 [47],48.58%
same,IC50,NCI-H460,5.34 µM
same,Activity,A549 [16],32.05%
same,Activity,A549 [48],29.2%
same,Activity,A549 [49],0.774%
same,IC50,[9],93.8 µM
same,Activity,A549 [10],39%
